In ChEMBL document CHEMBL1134017, “Heterocycle-based MMP inhibitors with P2' substituents” (Bioorg Med Chem Lett, 2001):

Columns and labels:
Matrilysin [1] = target: T1, Matrilysin (Homo sapiens, UniProt P09237)
T1 sequence (P09237 whole entry): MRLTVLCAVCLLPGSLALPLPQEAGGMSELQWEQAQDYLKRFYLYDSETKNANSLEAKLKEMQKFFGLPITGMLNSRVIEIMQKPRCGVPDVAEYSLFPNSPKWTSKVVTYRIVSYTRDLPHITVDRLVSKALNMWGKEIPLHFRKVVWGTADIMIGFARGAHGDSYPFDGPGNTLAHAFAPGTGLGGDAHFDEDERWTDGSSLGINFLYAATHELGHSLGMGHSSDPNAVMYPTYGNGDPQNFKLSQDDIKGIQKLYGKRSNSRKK
Description: Inhibition of Matrix metalloprotease-7

Interstitial collagenase = target: T2, Interstitial collagenase (Homo sapiens, UniProt P03956)
T2 sequence (P03956 whole entry): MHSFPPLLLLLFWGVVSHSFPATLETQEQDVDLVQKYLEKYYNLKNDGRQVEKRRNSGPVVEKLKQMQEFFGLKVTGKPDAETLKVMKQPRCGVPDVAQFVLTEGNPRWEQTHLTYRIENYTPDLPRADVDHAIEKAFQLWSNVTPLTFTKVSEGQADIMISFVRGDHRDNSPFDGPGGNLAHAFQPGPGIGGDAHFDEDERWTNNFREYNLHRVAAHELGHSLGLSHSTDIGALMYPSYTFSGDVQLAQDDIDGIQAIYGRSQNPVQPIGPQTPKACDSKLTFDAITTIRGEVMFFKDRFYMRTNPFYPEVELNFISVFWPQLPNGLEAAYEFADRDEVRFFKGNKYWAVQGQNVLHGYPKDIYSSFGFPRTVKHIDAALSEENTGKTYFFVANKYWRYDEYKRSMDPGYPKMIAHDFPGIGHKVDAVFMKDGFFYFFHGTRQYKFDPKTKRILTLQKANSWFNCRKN
Description: Inhibition of human Matrix metalloprotease-1

[2] = target: Matrix metalloproteinase-9 (Homo sapiens, UniProt P14780)
Sequence of Matrix metalloproteinase-9 (P14780 whole entry): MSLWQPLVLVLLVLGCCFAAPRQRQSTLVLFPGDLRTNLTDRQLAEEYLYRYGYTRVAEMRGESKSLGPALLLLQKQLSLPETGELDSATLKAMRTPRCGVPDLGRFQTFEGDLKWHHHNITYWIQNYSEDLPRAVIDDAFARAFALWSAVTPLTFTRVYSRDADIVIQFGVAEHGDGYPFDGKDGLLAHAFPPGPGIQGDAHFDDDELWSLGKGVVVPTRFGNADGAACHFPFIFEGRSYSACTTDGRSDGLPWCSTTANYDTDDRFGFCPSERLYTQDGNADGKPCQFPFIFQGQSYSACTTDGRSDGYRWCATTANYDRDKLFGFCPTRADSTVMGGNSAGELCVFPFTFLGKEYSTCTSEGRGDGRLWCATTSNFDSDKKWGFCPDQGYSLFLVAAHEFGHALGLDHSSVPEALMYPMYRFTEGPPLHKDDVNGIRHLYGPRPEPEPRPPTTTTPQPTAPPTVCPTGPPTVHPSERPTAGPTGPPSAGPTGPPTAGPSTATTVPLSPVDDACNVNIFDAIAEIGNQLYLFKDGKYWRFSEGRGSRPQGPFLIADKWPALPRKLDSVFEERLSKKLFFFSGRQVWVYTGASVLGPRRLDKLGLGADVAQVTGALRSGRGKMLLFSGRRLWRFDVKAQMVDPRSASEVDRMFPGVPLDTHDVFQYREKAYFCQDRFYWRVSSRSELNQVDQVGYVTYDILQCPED
Description: Inhibition of Matrix metalloprotease-9

Neutrophil collagenase = Neutrophil collagenase (Homo sapiens, UniProt P22894)
Sequence of Neutrophil collagenase (P22894 whole entry): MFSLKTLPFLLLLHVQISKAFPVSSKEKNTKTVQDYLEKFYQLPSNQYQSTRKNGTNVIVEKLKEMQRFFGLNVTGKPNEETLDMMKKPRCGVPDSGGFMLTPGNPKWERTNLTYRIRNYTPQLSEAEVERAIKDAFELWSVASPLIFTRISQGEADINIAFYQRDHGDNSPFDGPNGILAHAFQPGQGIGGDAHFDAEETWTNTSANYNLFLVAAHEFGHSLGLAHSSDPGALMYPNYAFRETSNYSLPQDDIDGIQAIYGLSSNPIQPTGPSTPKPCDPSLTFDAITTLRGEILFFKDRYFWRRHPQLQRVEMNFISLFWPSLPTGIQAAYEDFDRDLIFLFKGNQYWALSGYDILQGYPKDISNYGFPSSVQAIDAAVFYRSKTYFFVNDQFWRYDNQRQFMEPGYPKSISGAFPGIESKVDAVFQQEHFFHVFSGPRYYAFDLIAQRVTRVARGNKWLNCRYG
Description: Inhibition of Matrix metalloprotease-8

Collagenase 3 = Collagenase 3 (Rattus norvegicus, UniProt P23097)
Description: Inhibition of Matrix metalloprotease-13

Matrilysin [3] = target: T1, Matrilysin; remark: listed apart in the source
Description: Inhibition of Matrix metalloprotease-7

Stromelysin-1 = Stromelysin-1 (Homo sapiens, UniProt P08254)
Sequence of Stromelysin-1 (P08254 whole entry): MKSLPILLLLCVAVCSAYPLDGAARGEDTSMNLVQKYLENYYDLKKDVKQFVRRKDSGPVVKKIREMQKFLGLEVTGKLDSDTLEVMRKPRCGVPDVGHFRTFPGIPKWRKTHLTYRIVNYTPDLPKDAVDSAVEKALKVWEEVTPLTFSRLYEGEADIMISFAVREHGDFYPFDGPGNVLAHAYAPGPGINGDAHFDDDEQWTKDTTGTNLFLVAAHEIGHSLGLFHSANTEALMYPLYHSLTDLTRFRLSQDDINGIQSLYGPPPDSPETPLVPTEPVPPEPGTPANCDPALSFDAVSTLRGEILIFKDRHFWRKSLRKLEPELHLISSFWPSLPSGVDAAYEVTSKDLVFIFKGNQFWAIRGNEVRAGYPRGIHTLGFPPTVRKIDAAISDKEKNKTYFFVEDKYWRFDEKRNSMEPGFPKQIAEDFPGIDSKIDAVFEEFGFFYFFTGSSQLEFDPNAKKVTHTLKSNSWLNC
Description: Inhibition of Matrix metalloprotease-3

`COc1ccc(S(=O)(=O)N2CN(Cc3ccccc3)C(=O)C[C@@H]2C(=O)NO)cc1` was tested, and the IC50 (Matrilysin [1]) was > 10000 nM, the IC50 (Interstitial collagenase) was 22.2 nM and the IC50 [2] was 6.8 nM. It also gave an IC50 (Neutrophil collagenase) of 6.4 nM.
An IC50 (Collagenase 3) of 2.1 nM, an IC50 (Matrilysin [3]) of 737 nM and an IC50 (Interstitial collagenase) of 97 nM were found for `COc1ccc(S(=O)(=O)N2CCN(C(=O)OCc3ccccc3)CC[C@@H]2C(=O)NO)cc1` in this work. The IC50 [2] was 1.8 nM, the IC50 (Neutrophil collagenase) was 3.3 nM and the IC50 (Stromelysin-1) was 14 nM.
An IC50 (Collagenase 3) of 2.9 nM, an IC50 (Matrilysin [1]) of 3460 nM and an IC50 (Interstitial collagenase) of 643 nM were found for `COc1ccc(S(=O)(=O)N2CN(C(C)C)C(=O)C[C@@H]2C(=O)NO)cc1` in this work. For the same compound, the IC50 [2] was 4.2 nM and the IC50 (Neutrophil collagenase) was 6.3 nM.
An IC50 (Collagenase 3) of 2.4 nM, an IC50 (Matrilysin [3]) of 2780 nM and an IC50 (Interstitial collagenase) of 346 nM were found for `COc1ccc(S(=O)(=O)N2CCN(S(=O)(=O)c3cn(C)cn3)CC[C@@H]2C(=O)NO)cc1` in this work. For the same compound, the IC50 [2] was 5.5 nM, the IC50 (Neutrophil collagenase) was 6.6 nM and the IC50 (Stromelysin-1) was 39.2 nM.
An IC50 (Collagenase 3) of 0.84 nM, an IC50 (Matrilysin [3]) of 905 nM and an IC50 (Interstitial collagenase) of 28.9 nM were found for `COc1ccc(S(=O)(=O)N2CC[C@H](C(=O)NO)N(S(=O)(=O)c3ccc(OC)cc3)CC2)cc1` in this work. For the same compound, the IC50 (Neutrophil collagenase) was 1.8 nM and the IC50 (Stromelysin-1) was 6.3 nM.
An IC50 (Collagenase 3) of 0.75 nM, an IC50 (Matrilysin [1]) of 776 nM and an IC50 (Interstitial collagenase) of 465 nM were found for `COc1ccc(S(=O)(=O)N2CN(C3CCCCC3)C(=O)C[C@@H]2C(=O)NO)cc1` in this work. The IC50 [2] was 3.3 nM and the IC50 (Neutrophil collagenase) was 2.8 nM.
For `COc1ccc(S(=O)(=O)N2CN(C)C(=O)C[C@@H]2C(=O)NO)cc1`, the IC50 (Collagenase 3) was 7.9 nM, the IC50 (Matrilysin [1]) was > 10000 nM and the IC50 (Interstitial collagenase) was 2200 nM. For the same compound, the IC50 [2] was 24.1 nM and the IC50 (Neutrophil collagenase) was 47.3 nM.
An IC50 (Collagenase 3) of 1.9 nM, an IC50 (Matrilysin [1]) of 369 nM and an IC50 (Interstitial collagenase) of 22 nM were found for `COc1ccc(S(=O)(=O)N2CCN(C(C)C)C(=O)C[C@@H]2C(=O)NO)cc1` in this work. The IC50 [2] was 4.1 nM, the IC50 (Neutrophil collagenase) was 3.7 nM and the IC50 (Stromelysin-1) was 6.5 nM.
An IC50 (Matrilysin [1]) of 10000 nM, an IC50 (Interstitial collagenase) of 696 nM and an IC50 [2] of 52.5 nM were found for `COCCN1CN(S(=O)(=O)c2ccc(OC)cc2)[C@@H](C(=O)NO)CC1=O` in this work. It also gave an IC50 (Neutrophil collagenase) of 102 nM and an IC50 (Stromelysin-1) of 180 nM.
An IC50 (Collagenase 3) of 2 nM, an IC50 (Interstitial collagenase) of 1.2 nM and an IC50 (Stromelysin-1) of 3.4 nM were found for `COc1ccc(S(=O)(=O)N2C[C@@H]3CCCN3C(=O)C[C@@H]2C(=O)NO)cc1` in this work.
An IC50 (Collagenase 3) of 0.34 nM, an IC50 (Matrilysin [1]) of 909 nM and an IC50 (Interstitial collagenase) of 320 nM were found for `COc1ccc(S(=O)(=O)N2CN(C(C)(C)C)C(=O)C[C@@H]2C(=O)NO)cc1` in this work. The IC50 [2] was 1.1 nM and the IC50 (Neutrophil collagenase) was 1.5 nM.
An IC50 (Matrilysin [1]) of 88 nM, an IC50 (Interstitial collagenase) of 13.6 nM and an IC50 [2] of 1 nM were found for `COc1ccc(S(=O)(=O)N2CCN(Cc3ccccc3)C(=O)C[C@@H]2C(=O)NO)cc1` in this work. For the same compound, the IC50 (Neutrophil collagenase) was 1.5 nM and the IC50 (Stromelysin-1) was 3.3 nM.
